Assay results published in US11413278B2, “Compounds and methods for promoting stress resistance” (priority 2015, dated 2022).
Read-outs that look alike come from different tables or passages of the source.

Key:
WI-38 cells [1] = assay: CdCl2 (cadmium) resistance assay; format: cell-based, human; conditions: for fold induction at 10 µM: Homo sapiens, 12 h, normalized ATP measurement; for Assay 4: H2O2- & Cd-resistant / Assay 2: Cadmium-resistant: YES/NO; for Assay 2: Cadmium-resistant: * indicates partial
Procedure, shortened: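 Resistance to CdCl2 or MMS stress (12 h exposure) was scored in WI-38 fibroblasts pretreated with compound at 0.25–20 μM final, five doses, technical triplicates. MMS plates had compound added 24 h before MMS, after a shift to serum-free DMEM+2% BSA. Significance came from a global variance t-test over two independent runs.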

FOXO3 = FOXO3 siRNA knockdown: dependency for H2O2-resistance; format: cell-based, human; conditions: for FOXO3-dependency for H2O2-resistance (experiment 3): with & without H2O2, FOXO3 knockdown in WI-38 cells
C. elegans = format: in vivo, Caenorhabditis elegans
Procedure, shortened: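 Survival under oxidative stress: 500 μM H2O2 (final) was added to day-4 adults kept in liquid with compounds, FUdR present, 4 wells per molecule and 0.2% DMSO controls, with daily scoring of viability.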

WI-38 cells [2] = conditions: for Percentage of propidium iodide-positive dead cells (no H2O2 stress treatment), at 10 uM: negative control 0.41% ± 0.23%; for PI cell-death imaging without H2O2 (indicating potential toxicity): Assay 8(k), without H2O2, at 10 uM; for Percentage of propidium iodide-positive (dead) cells under normal conditions (qualitative) / PI-positive dead cells under normal conditions: WI-38, no H2O2; for PI-positive dead cells under normal conditions: control 0.4±0.2%
Protocol: WI-38 cells were seeded on 384-well plates for 24 hrs and then incubated with small molecules for 24 hrs. […] Images were collected on an INCell Analyzer 2000 (GE) and analyzed with the Developer software.

[3] = Exp. 1, WI-38 cells, read-out: Exp. 1, under Cd2Cl2 stress treatment, at 10 uM (fold change)
[4] = Exp. 2, WI-38 cells, read-out: Exp. 2, under Cd2Cl2 stress treatment, at 10 uM (fold change)
[5] = WI-38 cells, 10 μM, both stressors
[6] = score in summary of 38 core set hits
[7] = 10 uM, YES = resistance reduced by at least 50%, partial = 25% to 50%

| Compound | CdCl2-resistant (WI-38 cells [1]) | H2O2- & CdCl2-resistant (WI-38 cells [1]) | fold induction at 10 µM (WI-38 cells [1]; [3]) | fold induction at 10 µM (WI-38 cells [1]; [4]) | CdCl2-resistant (WI-38 cells [1]; WI-38 cells, 10 μM) | H2O2- & CdCl2-resistant (WI-38 cells [1]; [5]) | Assay 4: H2O2- & Cd-resistant (WI-38 cells [1]) | Assay 2: Cadmium-resistant (WI-38 cells [1]) | A = Cadmium resistant (WI-38 cells [1]; [6]) | A = Cadmium resistant (WI-38 cells [1]; summary score) | C = H2O2- & Cd-resistant (WI-38 cells [1]; summary score) | I = FOXO3-dependency for H2O2-resistance (FOXO3; score) | I = FOXO3-dependency for H2O2-resistance (FOXO3; summary score) | Percentage of propidium iodide-positive dead cells (no H2O2 stress treatment), at 10 uM (WI-38 cells [2]) | H2O2-resistance assay, 1st experiment (C. elegans; in vivo) | L = H2O2-resistance in worms (C. elegans; in vivo) | N = H2O2-resistance in woms (C. elegans; in vivo) | also measured |
| --- | --- | --- | --- | --- | --- | --- | --- | --- | --- | --- | --- | --- | --- | --- | --- | --- | --- | --- |
| COc1ccc(C(=O)/C=C/c2ccc(F)cc2)c(OC)c1 [Gr-4A] | YES | YES | 1.98 | 1.66 | YES | YES | YES | YES | 1 | 1 | 1 | 0 | 0 | 0.39% ± 0.14%, |  |  |  | N = H2O2-resistance in woms (C. elegans; score): 0; L = H2O2-resistance in worms (C. elegans; summary score): 0 |
| CCc1ccc(Oc2nc3ccccn3c(=O)c2/C=C(\C#N)C(=O)NC2CCCCC2)cc1 [Gr-5A] | YES | YES | 4.12 | 2.4 | YES | YES |  |  | 1 | 0 | 0 | 0 | 0 | 0.48% ± 0.20%, | YES; | 0 | 0 |  |
| NS(=O)(=O)c1ccc(NC(=O)c2ccc([N+](=O)[O-])o2)cc1 [Gr-1A] | YES | YES | 1.46 | 1.45 | YES | YES | YES | YES | 1 | 1 | 1 | 0 | 0 | 0.79% ± 0.36%, | YES; | 0 | 0 | FOXO3-dependency for H2O2-resistance (experiment 3) (FOXO3; [7]): No; FOXO3-dependency for H2O2-resistance (experiment 1 & 2) (FOXO3; 10 uM, with H2O2, FOXO3 knockdown in WI-38 cells, YES = resistance reduced by at least 50%, partial = 25% to 50%): No |
| N=C1S/C(=C\c2cn(-c3ccccc3)nc2-c2cccs2)C(=O)N1c1nccs1 [Gr-6C] |  |  |  |  |  |  |  |  | 0 | 0 | 0 | 0 | 0 | 0.66% ± 0.26%, |  | 0 | 0 |  |
| CNC(=O)/C(C#N)=C/c1c(Oc2ccc(C(C)(C)C)cc2)nc2ccccn2c1=O [Gr-5D] |  |  |  |  |  |  | YES | YES | 0 | 1 | 1 | 0 | 0 | 0.51% ± 0.18%, |  | 0 | 0 |  |
| Cc1cc(N)n(-c2ccccc2C(=O)O)n1 [Gr-6A] | YES | YES | 2.46 | 2.36 | YES | YES | YES | YES | 1 | 1 | 1 | 0 | 0 | 0.41% ± 0.17%, | YES; | 0 | 0 |  |
| O=C(Nc1cccc(Cl)c1)c1ccc([N+](=O)[O-])o1 [Gr-1D] | YES | YES | 3.14 | 3.84 | YES | YES | YES | YES | 1 | 1 | 1 | 0 | 0 | 4.16% ± 1.39%, |  | 0 | 0 | PI cell-death imaging without H2O2 (indicating potential toxicity) (WI-38 cells [2]): YES; Percentage of propidium iodide-positive (dead) cells under normal conditions (qualitative) (WI-38 cells [2]): increased the percentage; PI-positive dead cells under normal conditions (WI-38 cells [2]): 4.2±1.4% |
| COc1ccc(/C=C2\SC(=N)N(c3nccs3)C2=O)cc1 [O21] |  |  | 0.03 | 0.04 |  |  |  |  | 0 | 0 | 0 | 0 | 0 | 1.09% ± 0.39%, |  | 0 | 0 | FOXO3-dependency for H2O2-resistance, at 10 uM (experiment 3) - with & without H2O2 (FOXO3; 10 uM, experiment 3, with & without H2O2): YES; FOXO3-dependency for H2O2-resistance (experiment 3) (FOXO3; [7]): YES; PI cell-death imaging without H2O2 (indicating potential toxicity) (WI-38 cells [2]): YES; Percentage of propidium iodide-positive (dead) cells under normal conditions (qualitative) (WI-38 cells [2]): increased the percentage; PI-positive dead cells under normal conditions (WI-38 cells [2]): 1.1±0.4% |
| CC1C(=O)C(C)C(c2cc(Cl)ccc2O)NC1c1cc(Cl)ccc1O (stereo not drawn) [O6] | YES | YES | 2.18 | 2.05 | YES | YES | YES | YES | 1 | 1 | 1 | 0 | 0 | 0.36% ± 0.10%, | YES; | 0 | 0 |  |
| CCCC(=O)Nc1ccc(-c2cn3cccc(C)c3n2)cc1 [O12] | YES | YES | 1.36 | 1.59 | YES | YES |  | NO * | 1 | 0 | 0 | 0 | 0 | 0.45% ± 0.05%, | YES; | 0 | 0 |  |
| [O-][n+]1onc2c3nsnc3c(Br)cc21 [O17] |  |  | 0.95 | 1.35 |  |  |  |  | 0 | 0 | 0 | 0 | 0 | 0.56% ± 0.25%, | YES; | 1 | 1 | H2O2-resistance assay, 2nd experiment (C. elegans; in vivo): YES.; Protection of C. elegans from hydrogen peroxide (C. elegans; in vivo): could protect C. elegans from hydrogen peroxide |
